Consider 24 compounds from ChEMBL document CHEMBL1153912, “Antiproliferative effects of peracetylated naphthoxylosides” (Bioorg Med Chem Lett, 2009).

Molecules are shown by their SMILES.

Data set [1] concerns T-24. Kind of data set: Antiproliferative activity against human T24 cells after 96 hrs by crystal violet assay. Type of data set: functional. To be noted: T-24, 96 h, read-out: ED50 (the source's name).
Data set [2] deals with T-24. The data set is described as follows: Induction of glycosaminoglycan synthesis priming in human T24 cells assessed as ratio of fractions containing free glycosaminoglycan chains in drug to untreated control. Note: test concentration or dose not given here. Type of data set: functional.
Data set [3] is described as follows: Antiproliferative activity against human HFL1 cells after 96 hrs by crystal violet assay. Format: cell-based. As to conditions: read-out: ED50.
The test system of a further data set is HFL1. The data set is described as follows: Induction of glycosaminoglycan synthesis priming in human HFL1 cells assessed as ratio of fractions containing free glycosaminoglycan chains in drug to untreated control. Note: test concentration or dose not given here. Type of data set: cell-based.

With `CC(=O)Oc1cc(O[C@@H]2OC[C@@H](OC(C)=O)[C@H](OC(C)=O)[C@H]2OC(C)=O)cc2ccccc12`, the EC50 with T-24 [1] was found to be 65 µM. The results for the Ratio with T-24 [2] and in the data set with HFL1 were 3.7 and 1, respectively. Moreover, the GI50 at 96 h in data set [3] turned out to be 60 µM.

With `CC(=O)Oc1ccc2cc(O[C@@H]3OC[C@@H](OC(C)=O)[C@H](OC(C)=O)[C@H]3OC(C)=O)ccc2c1`, in the data set with T-24 [1], the EC50 amounted to 45 µM. Besides, the Ratio in the data set with T-24 [2] is given as 5.4; in the data set with HFL1 it was 2.5. For the same compound, in data set [3], the GI50 at 96 h was found to be 80 µM.

As for `CC(=O)Oc1ccc2c(O[C@@H]3OC[C@@H](OC(C)=O)[C@H](OC(C)=O)[C@H]3OC(C)=O)cccc2c1`, in the data set with T-24 [1], the EC50 worked out at 110 µM. The figures for the Ratio in the data set with T-24 [2] and in the data set with HFL1 were 6.4 and 1.8, respectively. In addition, the GI50 at 96 h in data set [3] turned out to be 80 µM.

For `CC(=O)O[C@@H]1[C@@H](OC(C)=O)[C@H](Oc2cccc3c(O[C@@H]4OC[C@@H](OC(C)=O)[C@H](OC(C)=O)[C@H]4OC(C)=O)cccc23)OC[C@H]1OC(C)=O`, in the data set on T-24 [1], the EC50 stood at 170 µM. Moreover, the Ratio turned out to be 6.9 in the data set on T-24 [2] and 5.4 in the data set with HFL1. In data set [3], the GI50 at 96 h is 10 µM.

Take `CC(=O)Oc1cccc2cccc(O[C@@H]3OC[C@@H](OC(C)=O)[C@H](OC(C)=O)[C@H]3OC(C)=O)c12`: in the data set on T-24 [1], the EC50 was 205 µM. In addition, the Ratio in the data set on T-24 [2] is given as 2.4; in the data set with HFL1, 0.8. In addition, the GI50 at 96 h in data set [3] was 110 µM.

In the case of `CC(=O)O[C@@H]1[C@@H](OC(C)=O)[C@H](Oc2cc3ccccc3cc2O[C@@H]2OC[C@@H](OC(C)=O)[C@H](OC(C)=O)[C@H]2OC(C)=O)OC[C@H]1OC(C)=O`, in the data set with T-24 [1], the EC50 turned out to be 220 µM. Besides, the Ratio in the data set on T-24 [2] came to 4.2; with HFL1, 2.8. Besides, in data set [3], the GI50 at 96 h turned out to be 30 µM.

`CC(=O)O[C@@H]1[C@@H](OC(C)=O)[C@H](Oc2ccc3ccc(O[C@@H]4OC[C@@H](OC(C)=O)[C@H](OC(C)=O)[C@H]4OC(C)=O)cc3c2)OC[C@H]1OC(C)=O`: in the data set with T-24 [1], the EC50 was 60 µM. Besides, the results for the Ratio in the data set with T-24 [2] and in the data set with HFL1 were 5.4 and 6.4, respectively. Also, in data set [3], the GI50 at 96 h amounted to 65 µM.

`CC(=O)Oc1ccc2ccccc2c1O[C@@H]1OC[C@@H](OC(C)=O)[C@H](OC(C)=O)[C@H]1OC(C)=O`: the EC50 in the data set on T-24 [1] was determined as 170 µM. Besides, the Ratio in the data set on T-24 [2] amounted to 0.5; in the data set on HFL1, 0.6. The GI50 at 96 h in data set [3] was 65 µM.

For `CC(=O)Oc1cc2ccccc2cc1O[C@@H]1OC[C@@H](OC(C)=O)[C@H](OC(C)=O)[C@H]1OC(C)=O`, in the data set with T-24 [1], the EC50 came to 260 µM. Also, the Ratio in the data set with T-24 [2] stood at 4.6; in the data set with HFL1, 2.2. Also, the GI50 at 96 h in data set [3] was determined as 75 µM.

Regarding `CC(=O)O[C@@H]1[C@@H](OC(C)=O)[C@H](Oc2cccc3cccc(O[C@@H]4OC[C@@H](OC(C)=O)[C@H](OC(C)=O)[C@H]4OC(C)=O)c23)OC[C@H]1OC(C)=O`, the EC50 with T-24 [1] was 190 µM. Also, the Ratio came to 1.7 in the data set with T-24 [2] and 2.4 with HFL1. Moreover, in data set [3], the GI50 at 96 h was 20 µM.

Regarding `CC(=O)O[C@@H]1[C@@H](OC(C)=O)[C@H](Oc2ccc(O[C@@H]3OC[C@@H](OC(C)=O)[C@H](OC(C)=O)[C@H]3OC(C)=O)c3ccccc23)OC[C@H]1OC(C)=O`, the EC50 in the data set with T-24 [1] was found to be 140 µM. The Ratio in the data set with T-24 [2] is given as 8; in the data set on HFL1, 13.6. Also, the GI50 at 96 h in data set [3] was 15 µM.

Take `CC(=O)O[C@@H]1[C@@H](OC(C)=O)[C@H](Oc2cc(O[C@@H]3OC[C@@H](OC(C)=O)[C@H](OC(C)=O)[C@H]3OC(C)=O)c3ccccc3c2)OC[C@H]1OC(C)=O`: in the data set on T-24 [1], the EC50 was 40 µM. Further, the Ratio in the data set with T-24 [2] was found to be 3.4; with HFL1 it was 4.7. In addition, the GI50 at 96 h in data set [3] was found to be 20 µM.

For `CC(=O)O[C@@H]1[C@@H](OC(C)=O)[C@H](Oc2ccc3cccc(O[C@@H]4OC[C@@H](OC(C)=O)[C@H](OC(C)=O)[C@H]4OC(C)=O)c3c2)OC[C@H]1OC(C)=O`, the EC50 in the data set on T-24 [1] turned out to be 110 µM. For the same compound, the Ratio is on record as 0.5 with T-24 [2] and 11.1 in the data set with HFL1. The GI50 at 96 h in data set [3] amounted to 135 µM.

Take `CC(=O)Oc1cccc2cc(O[C@@H]3OC[C@@H](OC(C)=O)[C@H](OC(C)=O)[C@H]3OC(C)=O)ccc12`: in the data set on T-24 [1], the EC50 worked out at 65 µM. In addition, the values for the Ratio in the data set on T-24 [2] and with HFL1 were 6.9 and 1.3, respectively. Moreover, in data set [3], the GI50 at 96 h was determined as 100 µM.

As for `CC(=O)O[C@@H]1[C@@H](OC(C)=O)[C@H](Oc2ccc3cc(O[C@@H]4OC[C@@H](OC(C)=O)[C@H](OC(C)=O)[C@H]4OC(C)=O)ccc3c2)OC[C@H]1OC(C)=O`, the EC50 with T-24 [1] worked out at 320 µM. In addition, the Ratio in the data set with T-24 [2] was 8.2; in the data set on HFL1, 15.5. Further, in data set [3], the GI50 at 96 h is 55 µM.

`CC(=O)Oc1ccc(O[C@@H]2OC[C@@H](OC(C)=O)[C@H](OC(C)=O)[C@H]2OC(C)=O)c2ccccc12`: the EC50 with T-24 [1] turned out to be 130 µM. Besides, the Ratio with T-24 [2] came to 9; in the data set on HFL1, 4.8. Moreover, the GI50 at 96 h in data set [3] is 80 µM.

`CC(=O)Oc1cc(O[C@@H]2OC[C@@H](OC(C)=O)[C@H](OC(C)=O)[C@H]2OC(C)=O)c2ccccc2c1`: in the data set with T-24 [1], the EC50 came to 25 µM. In addition, the Ratio with T-24 [2] came out at 4.5; in the data set with HFL1, 2.2. Moreover, in data set [3], the GI50 at 96 h amounted to 20 µM.

`CC(=O)Oc1ccc2ccc(O[C@@H]3OC[C@@H](OC(C)=O)[C@H](OC(C)=O)[C@H]3OC(C)=O)cc2c1`: in the data set on T-24 [1], the EC50 came to 190 µM. For the same compound, the Ratio in the data set with T-24 [2] amounted to 6.5; with HFL1, 2.2. Also, the GI50 at 96 h in data set [3] amounted to 85 µM.

Regarding `CC(=O)Oc1cccc2ccc(O[C@@H]3OC[C@@H](OC(C)=O)[C@H](OC(C)=O)[C@H]3OC(C)=O)cc12`, the EC50 in the data set with T-24 [1] came to 75 µM. Further, the Ratio with T-24 [2] is 4.8; with HFL1, 2.1. In data set [3], the GI50 at 96 h was 65 µM.

In the case of `CC(=O)Oc1cccc2c(O[C@@H]3OC[C@@H](OC(C)=O)[C@H](OC(C)=O)[C@H]3OC(C)=O)cccc12`, the EC50 with T-24 [1] was found to be 170 µM. Besides, the values for the Ratio with T-24 [2] and in the data set with HFL1 were 6.1 and 2.7, respectively. Moreover, the GI50 at 96 h in data set [3] was determined as 90 µM.

`CC(=O)O[C@@H]1[C@@H](OC(C)=O)[C@H](Oc2ccc3c(O[C@@H]4OC[C@@H](OC(C)=O)[C@H](OC(C)=O)[C@H]4OC(C)=O)cccc3c2)OC[C@H]1OC(C)=O`: the EC50 in the data set on T-24 [1] was determined as 100 µM. In addition, the values for the Ratio in the data set with T-24 [2] and in the data set with HFL1 were 8.8 and 12.7, respectively. Besides, the GI50 at 96 h in data set [3] turned out to be 160 µM.

For `CC(=O)Oc1c(O[C@@H]2OC[C@@H](OC(C)=O)[C@H](OC(C)=O)[C@H]2OC(C)=O)ccc2ccccc12`, in the data set on T-24 [1], the EC50 is 250 µM. The results for the Ratio with T-24 [2] and in the data set on HFL1 were 7.1 and 1.8, respectively. For the same compound, the GI50 at 96 h in data set [3] came to 110 µM.

Consider `CC(=O)Oc1ccc2cccc(O[C@@H]3OC[C@@H](OC(C)=O)[C@H](OC(C)=O)[C@H]3OC(C)=O)c2c1`, for which the EC50 in the data set on T-24 [1] was 170 µM. Also, the Ratio in the data set with T-24 [2] is listed as 8.2; in the data set with HFL1, 6.2. Moreover, the GI50 at 96 h in data set [3] is 80 µM.

In the case of `CC(=O)O[C@@H]1[C@@H](OC(C)=O)[C@H](Oc2ccc3ccccc3c2O[C@@H]2OC[C@@H](OC(C)=O)[C@H](OC(C)=O)[C@H]2OC(C)=O)OC[C@H]1OC(C)=O`, in the data set with T-24 [1], the EC50 came out at 25 µM. Moreover, the Ratio is reported as 1.4 in the data set on T-24 [2] and 0.8 in the data set with HFL1. Further, the GI50 at 96 h in data set [3] is 5 µM.
